Assays:
[1] = system: infiltrating cells in spinal cord; test: Chronic EAE: mean cell counts in spinal cord (H-E sections, 0.12 mm^2 fields); type: in vivo, guinea pig; conditions: for Mean # Cells/0.12 mm^2: spinal cord
Method: To quantify the abnormalities observed in the spinal cord, sections stained with H-E were divided into 12 representative pie-shaped areas. In each area, the number of cells within a 0.12 mm^2 field of view was counted using Sigma Scan Pro image analysis software (SPSS Inc.), and the combined mean number of cells in all 12 areas was calculated for the whole spinal cord (36 fields of view per animal). Note that as all cell nuclei were counted, the number of cells may include neurons and glial cells in addition to infiltrates.

[2] = system: guinea pig model of CP-EAE; test: Remyelination and motor function in guinea pig CP-EAE; type: in vivo
Description: The number of lesions showing myelin pallor was divided by the total number of lesions within cross sections of spinal cord taken throughout its length from each animal (FIG. 10) (for the method see Warrington et al., 2000, Proc. Nat'l Acad. Sci. USA 97: 6820-5). […] In contrast, after 20 days of N-[N-(3-pyridinesulfonyl)-L-3,3-dimethyl-4-thiaprolyl]-O-[1-methylpiperazin-4-ylcarbonyl]-L-tyrosine isopropyl ester administration, the frequency of shadow plaques in the spinal cord was increased over saline-treated animals, reaching 68%; after 30 and 40 days, the incidence was 77% and 87%, respectively (p<0.001, 2-way ANOVA with Tukey test).
The overall degree of plaque remyelination in the spinal cord was also measured. […] Total lesion area was determined for each animal by tracing all lesions within all spinal cord sections and summing the areas. Likewise, the total area of remyelination was measured by tracing regions of myelin pallor. FIGS. 10C-F plot the total lesion area against the percentage of remyelination. In saline-treated animals, lesions rarely show any evidence of repair, with means ranging between 2 and 11%, and there were no significant differences over the 40-day treatment period (FIGS. 10C-F). In contrast, after 20, 30 or 40 days of N-[N-(3-pyridinesulfonyl)-L-3,3-dimethyl-4-thiaprolyl]-O-[1-methylpiperazin-4-ylcarbonyl]-L-tyrosine isopropyl ester treatment, the majority of lesions identified show a variable degree of remyelination ranged from 2 to 100% in the majority of lesions (mean area of remyelination approximately 50%) (FIGS. 10D-5). (p<0.001, 2-way ANOVA with Tukey test). Therefore while lesions were evident in all animals throughout the 40-day treatment period, N-[N-(3-pyridinesulfonyl)-L-3,3-dimethyl-4-thiaprolyl]-O-[1-methylpiperazin-4-ylcarbonyl]-L-tyrosine isopropyl ester increased the incidence and percentage of remyelination. Furthermore, evidence of remyelination in N-[N-(3-pyridinesulfonyl)-L-3,3-dimethyl-4-thiaprolyl]-O-[1-methylpiperazin-4-ylcarbonyl]-L-tyrosine isopropyl ester-treated animals is consistent with an observed regain of motor function. The starting point for treatment was a clinical score of 2, which denotes full bilateral hind limb paralysis. […] Functional recovery was never observed in control animals.

[3] = system: spinal cord lesions of paralyzed EAE guinea pigs; test: Example 2: spontaneous remyelination in chronic EAE (SCR, toluidine blue, EM, lesion area analysis, motor function); type: in vivo, guinea pig
[4] = system: brain and spinal cord of EAE guinea pigs; test: Chronic EAE: histology and blinded pathological scoring of brain and spinal cord sections (H-E, SCR); type: in vivo, guinea pig
Method: Animal Sacrifice and Histological Analysis. Untreated, chronic EAE animals (n=5) were sacrificed on day 40, as well as non-EAE controls (n=5). Following each 10-day treatment interval, 5 animals from each group were sacrificed (0.25 mL sodium pentobarbital), blood samples were collected for FACS analysis (see below), and the brain and spinal cord dissected and sectioned. Three spinal sections were used, corresponding to lumbar, thoracic and cervical regions of the cord. The brain was cut into five transverse sections. The first three proximal sections were combined in one block, and the last two distal sections in another. Tissues were fixed in 10% formalin and embedded in paraffin. […] sections were stained with hematoxylin-eosin (H-E) or solochrome-R-cyanlin (SCR) and evaluated by a blinded observer in each of four categories: (1) meningeal inflammation, (2) perivascular infiltration, (3) encephalitis or (4) myelitis and demyelination (Table 6). The combined pathological score represents the total score (out of a potential 20) from all 5 CNS sections in each animal.

[5] = system: EAE in female Hartley guinea pigs
[6] = molecular target: α4 integrin (Homo sapiens, UniProt P05556+P13612); test: Inhibition of cell adhesion to VCAM; type: cell-based, human and guinea pig; conditions: human and guinea pig integrin; read-out: IC50 for inhibition of cell adhesion to VCAM
Sequence of α4 integrin (P13612 34-1032): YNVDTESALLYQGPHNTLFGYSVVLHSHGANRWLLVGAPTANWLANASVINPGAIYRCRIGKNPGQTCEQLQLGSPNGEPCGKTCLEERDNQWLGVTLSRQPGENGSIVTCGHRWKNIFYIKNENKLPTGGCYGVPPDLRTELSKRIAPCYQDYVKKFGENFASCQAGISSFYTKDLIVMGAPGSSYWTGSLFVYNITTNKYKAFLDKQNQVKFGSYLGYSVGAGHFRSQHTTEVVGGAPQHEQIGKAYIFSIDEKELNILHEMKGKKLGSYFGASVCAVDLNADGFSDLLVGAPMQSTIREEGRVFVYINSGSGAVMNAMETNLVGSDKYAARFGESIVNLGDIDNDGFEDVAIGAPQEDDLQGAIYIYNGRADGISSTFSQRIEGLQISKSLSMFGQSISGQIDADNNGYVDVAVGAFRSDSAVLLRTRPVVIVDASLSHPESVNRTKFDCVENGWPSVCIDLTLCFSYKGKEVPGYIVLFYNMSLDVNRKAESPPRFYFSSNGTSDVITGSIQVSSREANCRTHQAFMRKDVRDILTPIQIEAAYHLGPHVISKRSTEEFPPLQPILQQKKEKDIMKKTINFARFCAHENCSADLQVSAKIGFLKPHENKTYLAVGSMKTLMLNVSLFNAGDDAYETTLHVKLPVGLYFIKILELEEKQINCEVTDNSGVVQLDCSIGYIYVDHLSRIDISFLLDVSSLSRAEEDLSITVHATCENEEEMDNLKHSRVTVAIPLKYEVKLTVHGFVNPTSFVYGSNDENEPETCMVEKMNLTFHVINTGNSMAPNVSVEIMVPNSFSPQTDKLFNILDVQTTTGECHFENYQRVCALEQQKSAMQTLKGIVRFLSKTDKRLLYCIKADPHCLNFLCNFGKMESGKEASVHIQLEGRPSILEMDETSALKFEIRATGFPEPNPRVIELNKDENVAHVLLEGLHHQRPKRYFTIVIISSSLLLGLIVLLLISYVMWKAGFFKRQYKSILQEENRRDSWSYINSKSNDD
Sequence of α4 integrin (P05556 21-798): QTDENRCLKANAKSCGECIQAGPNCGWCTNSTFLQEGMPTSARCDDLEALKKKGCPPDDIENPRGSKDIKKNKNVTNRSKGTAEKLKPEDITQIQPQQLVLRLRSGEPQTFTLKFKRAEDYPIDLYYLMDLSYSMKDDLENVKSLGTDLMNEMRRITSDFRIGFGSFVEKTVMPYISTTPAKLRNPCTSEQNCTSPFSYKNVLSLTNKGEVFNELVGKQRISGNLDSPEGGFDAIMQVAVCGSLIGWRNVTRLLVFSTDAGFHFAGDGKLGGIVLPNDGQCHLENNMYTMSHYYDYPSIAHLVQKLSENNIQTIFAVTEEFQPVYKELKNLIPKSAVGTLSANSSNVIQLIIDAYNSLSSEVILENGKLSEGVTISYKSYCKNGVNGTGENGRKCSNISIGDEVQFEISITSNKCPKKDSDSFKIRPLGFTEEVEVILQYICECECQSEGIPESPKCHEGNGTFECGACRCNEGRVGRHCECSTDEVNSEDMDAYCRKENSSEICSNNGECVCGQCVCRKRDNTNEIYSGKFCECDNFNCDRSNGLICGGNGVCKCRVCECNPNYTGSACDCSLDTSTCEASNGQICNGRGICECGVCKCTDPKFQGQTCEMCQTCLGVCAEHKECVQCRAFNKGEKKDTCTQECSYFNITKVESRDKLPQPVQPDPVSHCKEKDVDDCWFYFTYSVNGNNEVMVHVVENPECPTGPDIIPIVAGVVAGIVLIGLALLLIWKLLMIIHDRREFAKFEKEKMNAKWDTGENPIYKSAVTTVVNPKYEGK

Structure (SMILES): CC(C)OC(=O)[C@H](Cc1ccc(OC(=O)N2CCN(C)CC2)cc1)NC(=O)[C@H]1N(S(=O)(=O)c2cccnc2)CSC1(C)C [N-[N-(3-pyridinesulfonyl)-L-3,3-dimethyl-4-thiaprolyl]-O-[1-methylpiperazin-4-ylcarbonyl]-L-tyrosine isopropyl ester]
- cell number in spinal cord versus saline-treated animals ([1]; after 10, 20, 30 or 40 days, p<0.001 two-way ANOVA): significant reduction
- mean cell counts versus chronic (d40) control EAE animals ([1]; after 20, 30 or 40 days, p<0.05): significantly lower
- mean cell count in spinal cord versus non-EAE animals ([1]; after 40 days of treatment): not different
- mean cell count after removal of compound for 10 days versus continuous treatment ([1]; p<0.05): significant increase
- rate of cell loss from spinal cord ([1]; slope of linear regression of mean cell counts, r^2=0.90): 8 cells/mm^2/day
- Mean # Cells/0.12 mm^2 ([1]; D50 (10 days of treatment)): 97 ± 3.9 cells/0.12 mm^2
- Mean # Cells/0.12 mm^2 ([1]; D60 (20 days of treatment)): 86 ± 4.2 cells/0.12 mm^2
- Mean # Cells/0.12 mm^2 ([1]; D70 (30 days of treatment)): 89 ± 8 cells/0.12 mm^2
- Mean # Cells/0.12 mm^2 ([1]; D80 (40 days of treatment)): 70 ± 4 cells/0.12 mm^2
- mean area of remyelination ([2]; after 20, 30 or 40 days of treatment): approximately 50%
- percentage of plaques exhibiting evidence of remyelination (frequency of shadow plaques in the spinal cord) ([2]; after 20 days of administration): 68%
- percentage of plaques exhibiting evidence of remyelination (incidence) ([2]; after 30 days): 77%
- percentage of plaques exhibiting evidence of remyelination (incidence) ([2]; after 40 days): 87%
- treated animals in which paralysis was reversed to a clinical score of 1 ([2]; treatment started at clinical score of 2): 50%
- myelin repair, share of the total lesion area ([3]; 30 mg/kg twice daily s.c.): 50%
- SCR-stained spinal cord after 10 days of treatment ([3]; 10 days): minimal evidence of myelin pallor
- SCR-stained spinal cord lesions after 20 days of treatment ([3]; 20 days): many lesions exhibited diffuse pale blue staining
- SCR-stained spinal cord lesions after 40 days of treatment ([3]; 40 days): presented as shadow plaques
- plaques showing evidence of remyelination ([3]; after 40 days of treatment, 30 mg/kg twice daily s.c.): 87%
- semithin and EM sections of lesions ([3]; day 30 of treatment): multiple thin myelin layers around large caliber axons
- animals that regained motor function ([3]; paralyzed guinea pigs, clinical score 2 at start): 50%
- mean pathological score in each of four categories versus saline ([4]; meningeal inflammation, perivascular infiltration, encephalitis/myelitis, demyelination, p<0.001 two-way ANOVA): significant decrease
- mean combined pathological score after withdrawal for 10 days versus continued treatment ([4]; p<0.05 Kruskal Wallis): significantly higher
- spinal cord histology after 20 days of treatment (day 60) ([4]; versus saline): much smaller areas of demyelination
- spinal cord histology after 40 days of treatment (day 80) ([4]; versus saline): almost no meningeal and perivascular infiltration
- start of clinical reversal following the initial treatment ([5]; 30 mg/kg 2x/day s.c.): 2 to 3 days
- mean clinical score over the treatment period versus saline ([5]; 30 mg/kg 2x/day s.c. from day 40 for 10-40 days, p<0.001 Mann Whitney): significantly lower
- mean clinical score day 70-80 after withdrawal (30 days treatment, 10 days off) versus continuous treatment ([5]; n=5, p<0.05 Mann Whitney): significantly greater
- clinical score reached during treatment in animals with an established clinical score of 2 ([5]; several animals, paresis reversed): 1
- escape from treatment ([5]; up to 40 days of treatment): None of the animals, however, escaped from treatment
- IC50 [6]: 1 nM

Reference: patent US20050069541A1, “Composition for and treatment of demyelinating diseases and paralysis by administration of remyelinating agents” (priority 2003, published 2005)
